Measured values taken from article PMC5908784, “Extracellular loops 2 and 3 of the calcitonin receptor selectively modify agonist binding and efficacy” (Biochemical Pharmacology, 2018).
Substitutions are numbered along the chain they refer to. pKi: −log10 of the molar value. Where a SMILES comes first, the peptide text is derived from it. Bridges are numbered along the chain shown (N, C = ends).

What was measured:
Experiment in all cases: Heterologous whole cell competition binding
Details in all cases: heterologous competition of 125I-sCT(8-32), whole cells, mean ± S.E.M., SEM
[1] = molecular target: T1, hCTR F285A (Homo sapiens, UniProt P30988, F285A)
T1 construct: expressed in transfected cells
T1 sequence (P30988 25-474 F285A): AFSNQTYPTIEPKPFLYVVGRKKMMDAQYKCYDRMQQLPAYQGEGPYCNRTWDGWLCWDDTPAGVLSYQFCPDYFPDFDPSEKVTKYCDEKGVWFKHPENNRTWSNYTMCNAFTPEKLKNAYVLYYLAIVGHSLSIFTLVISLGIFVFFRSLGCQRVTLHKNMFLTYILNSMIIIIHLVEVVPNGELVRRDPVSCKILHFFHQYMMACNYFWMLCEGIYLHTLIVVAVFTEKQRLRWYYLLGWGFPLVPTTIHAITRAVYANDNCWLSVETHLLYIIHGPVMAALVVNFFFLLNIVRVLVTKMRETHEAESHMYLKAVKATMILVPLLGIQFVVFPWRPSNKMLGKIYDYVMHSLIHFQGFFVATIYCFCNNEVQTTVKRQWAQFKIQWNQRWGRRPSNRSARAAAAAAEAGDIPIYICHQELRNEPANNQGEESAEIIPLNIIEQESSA
Method in brief: (§1)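 Gamma counter read-out of bound radioactivity after overnight incubation and removal of non-bound ligand. Affinities are given as pKi, derived with Cheng-Prusoff correction.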

[2] = molecular target: T2, hCTR S364A (Homo sapiens, UniProt P30988, S364A)
T2 construct: c-Myc (N); expressed in transfected cells
T2 sequence (P30988 25-474 S364A): T1 sequence (P30988 25-474 F285A) with A261F, S340A
Method in brief: as §1

[3] = molecular target: T3, hCTR V357A (Homo sapiens, UniProt P30988, V357A)
T3 construct: c-Myc (N); expressed in transfected cells
T3 sequence (P30988 25-474 V357A): T1 sequence (P30988 25-474 F285A) with A261F, V333A
Method in brief: as §1

[4] = molecular target: T4, hCTR R281A (Homo sapiens, UniProt P30988, R281A)
T4 construct: expressed in transfected cells
T4 sequence (P30988 25-474 R281A): T1 sequence (P30988 25-474 F285A) with R257A, A261F
Method in brief: as §1

**Q.** With `CSCC[C@H](NC(=O)CNC(=O)[C@H](CO)NC(=O)[C@H](Cc1ccccc1)NC(=O)[C@H](CCCNC(=N)N)NC(=O)[C@H](Cc1c[nH]cn1)NC(=O)[C@H](Cc1ccccc1)NC(=O)[C@H](CC(N)=O)NC(=O)[C@H](CC(N)=O)NC(=O)[C@H](CC(C)C)NC(=O)[C@H](CC(N)=O)NC(=O)[C@H](CCCNC(=N)N)NC(=O)[C@H](Cc1c[nH]c2ccccc12)NC(=O)[C@H](Cc1ccc(O)cc1)NC(=O)[C@H](C)NC(=O)[C@H](CO)NC(=O)[C@H](CC(C)C)NC(=O)[C@@H](NC(=O)[C@@H]1CSSC[C@H](N)C(=O)N[C@@H](CO)C(=O)N[C@@H](CC(N)=O)C(=O)N[C@@H](CC(C)C)C(=O)N[C@@H](CO)C(=O)N[C@@H]([C@@H](C)O)C(=O)N1)C(C)C)C(=O)NCC(=O)N[C@@H](Cc1ccccc1)C(=O)NCC(=O)N1CCC[C@H]1C(=O)N[C@@H](CCC(=O)O)C(=O)N[C@H](C(=O)N1CCC[C@H]1C(N)=O)[C@@H](C)O` [pCT] (H-CSNLSTCVLSAYWRNLNNFHRFSGMGFGPETP-NH2; disulfide 1-7) as the compound, how does the pKi [1] read?
**A.** 7.92

**Q.** And the pKi [2]?
**A.** 8.27

**Q.** What about the pKi [3] of the same compound?
**A.** 7.89

**Q.** What about the pKi [4] of the same compound?
**A.** 7.18
